Tested on: human sebaceous glands (hSGs)
Experiment: Sebum content of ex-vivo cultured human sebaceous glands (lipids/proteins ratio)
Type: cell-based
Conditions: 5 μM, positive control; for Sebum content in hSGs, Average as % ratio of the control group: day 6 of organ culture
Procedure: At the end of the culture time, the sebum was extracted and quantified from each experimental group of hSGs and then normalized by the proteins extracted from the residual hSG material (mg lipids/mg proteins). As a result, the biological activity of the tested compounds is inferred by comparing the lipids/proteins ratio of the treated glands with that of the control group. Using micro-scissors and tweezers, hSGs were isolated from the pilosebaceous units of a scalp skin sample. […] After 24 hours of culture the viability of the glands was assessed via resazurin assay and then, having attested their good viability, the culture medium was substituted with the same medium supplemented with experimental extracts, whereas the control group received again the standard medium. The culture medium was renewed every other day. At day six of the organ culture, after having preventively verified the good viability of the hSGs via resazurine assay, each group of hGSs was collected and analyzed for quantifying the sebum content. […] Methods are described in detail in WO2016020339 A8. The amounts of normalized lipids obtained from the treated groups, i.e. the sebum produced by each group of hSGs, were expressed in percentages with respect to the value obtained from the control group, in order to point out the regulatory effect performed by the experimental treatment.

## COc1cc(CNC(=O)CCCC/C=C/C(C)C)ccc1O [capsaicin, Capsaicin]
Table 6 experiment
  Reduction of the sebum content of the hSGs in comparison with the control group: 26.5%
  Sebum content in hSGs, Average as % ratio of the control group: 73.5%
Table 7 experiment
  Sebum content in hSGs, Average as % ratio of the control group: 88.3%

— patent US20210008137A1, “EXTRACTS OF COPRINUS COMATUS AND THEIR USE FOR REGULATING THE PILOSEBACEOUS UNIT IN A HUMAN” (Symrise AG, priority 2017, published 2021)
